Entries after “also recorded” stand apart in the source; their conditions may differ.
Columns and labels:
[1] = tested on: congestive heart failure (CHF); test: Model of congestive heart failure: permanent ligation of the left coronary artery (Example 6); format: in vivo, rat; conditions: after permanent ligation of the left coronary artery
[2] = tested on: transient focal cerebral ischemia induced by Middle Cerebral Artery Occlusion (MCAO); test: Animal cerebral infarct assay: two-hour Middle Cerebral Artery Occlusion (MCAO) with reperfusion; format: in vivo, rat; conditions: for total ischemic damage relative to control animals: I.V. at the time of MCAO; for total infarct volume relative to control animals: administered (I.V.) at the time of MCAO; for reduction of infarct volume: administered at reperfusion; for tissue edema relative to controls / total infarct volume relative to controls / total ischemic damage relative to controls: administered at the time of reperfusion; for edema relative to control animals: at the time of MCAO
Description: This assay is used to assess the efficacy of the test agents in protecting the brain against necrosis following cerebral ischemia induced in rats. Middle Cerebral Artery Occlusion (MCAO) is a widely used technique to induce transient focal cerebral ischemia in animal models. […] Furthermore, this model accurately represents the involvement of middle cerebral artery (MCA), the most affected vessel in human stroke, and also allows reperfusion as it happens in humans. MCAO by a two-hour occlusion is used to produce the maximum size of cortical infarction without increased mortality at twenty-four hours. Male Wistar rats (Hadan, Ind.) weighing 300-350 g were allowed free access to water and commercial rodent diet under standard laboratory conditions. The room temperature was maintained at 20-23° C. and room illumination was on a 12/12-hour light/dark cycle. The rats were acclimatized to the laboratory environment 5 to 7 days prior to the study. Before surgery, the animals were fasted overnight, but had free access to water. The rats were anesthetized with 3.0% isoflurane (Aerrane, Front Dodge, Iowa) in […] and the animal's neck was shaved and sterilized before the operation. The animals were subjected to two hours MCAO using a modified intraluminal filament technique. A midline incision on the ventral part of the neck was made to expose external and internal carotid arteries. The right external and common carotid arteries were ligated by a suture (silk 5/0, Carlisle Laboratories, Farmers Branch, Tex.) and the right internal artery was temporarily ligated by a microvascular clip (Fine Science Tool Inc., Foster City, Calif.). A small incision was made in the common carotid artery and a nylon filament, its tip rounded by heating, prepared from a fishing line (Stren Fishing Lines, Wilmington, Del.) was inserted from the right common carotid artery. The filament was advanced into the internal carotid artery 18-20 mm from the point of bifurcation of internal and external arteries and a suture was tightly ligated around the filament. Two hours post occlusion, the animals were re-anesthetized to allow reperfusion for the remaining of the experiment by removal of the filament. The anesthetized animal were placed on a stereotaxic apparatus (Harvard Apparatus, S. Natick, Mass.). Anesthesia was maintained by inhalation of 3.0% isoflurane in […] throughout the entire procedure. The scalp was shaved and sterilized prior to surgery. A midline sagittal incision about 3 cm long was made slightly behind the eyes to expose the skull. The skull was scraped with a rounded end spatula to remove periosteal connective tissue. A bur hole was placed 1.5 mm lateral, 1 mm posterior to the left of the bregma to mark the left lateral ventricle. A brain infusion cannula (ALZET CO. Palo Alto, Calif.) was inserted 4 mm deep into the hole. The desired depth was adjusted by attaching spacers to the cannula. The cannula was attached to a 4-cm silastic catheter (Helix Medical Inc.) fixed in place with dental cement (Ketac-cement, Norristown, Pa.). The catheter was either attached to a primed osmotic pump placed subcutaneously between the shoulder blades for permanent infusion or to a syringe for a short infusion. Anesthesia was maintained by inhalation of 3.0% isoflurane in […] throughout the entire procedure. The exterior site of the right femoral vein was shaved and sterilized prior to surgery. A 3 cm incision was made in the right groin region and the femoral vein was isolated. A small incision was made on the femoral vein temporarily ligated with a microvascular clip to introduce and advance a polyethylene (PE-50) catheter (Becton. Dickinson and Co., Sparks, Md.). The catheter was secured in place with suture (silk 5/0, Carlisle Laboratories, Farmers Branch, Tex.). The other end of the catheter was attached to a syringe filled with the heparinized saline for the bolus injection. […]

[3] = Experiments performed in support of the invention: synergy of hesperetin with tocopherols (test not specified)
[4] = oral gavage pre-MCAO, dose not given
[5] = oral gavage pre-MCAO (3 hours), 10 mg/kg
[6] = listed as gamma-tocopherol metabolite enriched composition
[7] = listed as gamma-tocopherol enriched composition
[8] = listed as gamma-tocopherol enriched tocopherol composition

Question: With `C[C@H](CS)C(=O)N1CCC[C@H]1C(=O)O` [captopril, 1-[(2S)-3-mercapto-2-methylpropionyl]-L-proline] as the molecule, how does the heart weight [1] read?
Answer: The heart weight was “reduced heart weight”.

Question: And the “left ventricular systolic pressure (LVSP)” value [1]?
Answer: The value was “reduced LVSP”.

Question: Which results are given for `Cc1c(C)c2c(c(C)c1O)CC[C@@](C)(CCC[C@H](C)CCC[C@H](C)CCCC(C)C)O2` (relative stereo) [alpha-tocopherol, [2R-2R*(4R*,8R*)]-3,4-dihydro-2,5,7,8-tetramethyl-2-(4,8,12-trimethyltridecyl)-2H-1-benzopyran-6-ol, reference compound]?
Answer: reduction of infarct size ([2]; 6 mg/kg at MCAO (IV)): 42%; reduction of infarct size [2, 4]: 43%

Question: For `Cc1cc(O)c(C)c2c1OC(C)(CCCC(C)CCCC(C)CCCC(C)C)CC2` (stereo not drawn) [beta-tocopherol, 3,4-dihydro-2,5,8-trimethyl-2-(4,8,12-trimethyltridecyl)-2H-1-benzopyran-6-ol], which total infarct size ([2]; gavage, three hours pre-MCAO) is on record?
Answer: Its total infarct size is “reduce total infarct size”.

Question: And the “reduction of infarct size” value [2, 5]?
Answer: Its value is 76%.

Question: Which results are given for `Cc1c(O)cc2c(c1C)OC(C)(CCC(=O)O)CC2` (stereo not shown) [gamma-CEHC, 6-hydroxy-2,7,8-trimethylchroman-2-propanoic acid]?
Answer: total ischemic damage relative to control animals [2]: significantly reduced; decrease of neuronal damage ([2]; IV at MCAO, drug range 0.1-5 mg/kg): 50-65%; total infarct volume relative to control animals [2]: reduce total infarct size; also recorded: significantly reduced; total infarct volume relative to control animals [2, 6]: reduce total infarct; reduction of infarct volume ([2]; 10 mg/kg): 52%; tissue edema relative to controls [2]: reduction; total infarct volume relative to controls [2]: reduce total infarct size; total ischemic damage relative to controls [2]: reduction; total infarct volume relative to controls [2, 6]: reduction; also recorded: reduce total infarct; edema relative to control animals [2]: reduced tissue edema

Question: With `COc1ccc([C@@H]2CC(=O)c3c(O)cc(O)cc3O2)cc1O` [hesperetin, (S)-2,3-dihydro-5,7-dihydroxy-2-(3-hydroxy-4-methoxyphenyl)-4H-1benzopyran-4-one] as the molecule, how does the “synergy with gamma-tocopherol and delta-tocopherol” value [3] read?
Answer: The value was “act synergistically”.

Question: What does the source list for `Cc1c(O)cc2c(c1C)OC(C)(CCCC(C)CCCC(C)CCCC(C)C)CC2` (stereo not shown) [gamma-tocopherol, 3,4-dihydro-2,7,8-trimethyl-2-(4,8,12-trimethyltridecyl)-2H-1-benzyopyran-6-ol]?
Answer: reduction of infarct size ([2]; 6 mg/kg at MCAO (IV)): 82%; total ischemic damage relative to control animals [2]: significantly reduced; reduction of infarct size ([2]; IV, 0.6 mg/kg, at MCAO): 81%; total infarct volume relative to control animals [2, 7]: reduce total infarct size; total infarct volume relative to control animals [2, 8]: significantly reduced; also recorded: reduce total infarct; reduction of infarct volume ([2]; 10 mg/kg): 70%; tissue edema relative to controls [2]: reduction; total ischemic damage relative to controls [2]: reduction; total infarct volume relative to controls [2, 7]: reduce total infarct size; also recorded: reduction; total infarct volume relative to controls [2, 8]: reduce total infarct; reduction of tissue edema compared with alpha- or delta-tocopherol ([2]; at the same concentration): more effective; reduction of total infarct volume compared with alpha- or delta-tocopherol ([2]; at the same concentration): more effective; edema relative to control animals [2]: significantly reduced; mean reduction of infarct volumes ([2]; intraperitoneal, 10-20 mg/kg, at MCAO or 3 hours post-reperfusion): 20-57%; reduction of infarct size / infarct volume ([2]; oral gavage 3 hours pre-MCAO, 4 mg/kg): 53%; reduction of infarct size [2, 5]: 77%

Question: With `Cc1cc(O)cc2c1O[C@](C)(CCC[C@H](C)CCC[C@H](C)CCCC(C)C)CC2` (relative stereo) [delta-tocopherol, [2R-[2R*(4R*,8R*)]]-3,4-dihydro-2,8-dimethyl-2-(4,8,12-trimethyltridecyl)-2H-1-benzo-pyran-6-ol] as the molecule, how does the “reduction of infarct size” value ([2]; IV, 0.60 mg/kg) read?
Answer: Its value is 52%.

Question: And the “total infarct volume relative to control animals” value [2]?
Answer: Its value is “reduce total infarct size”.

Question: What about the “reduction of infarct size” value [2, 4] of the same molecule?
Answer: Its value is 48%.

Question: And the “reduction of total infarct volume compared with alpha-tocopherol” value ([2]; rat, in vivo)?
Answer: Its value is “more effective”.
